Patent US8932597B2 (priority 2008, dated 2015)

Tests used:
[1] = tested on: anti-M2 human monoclonal antibody Z3G1; type: binding
HuM2e antibody 23K12 = type: binding, human
2N9 control antibody = type: binding
mAb 8i10 = type: binding, human

## 684 (SLLTEVETPIRNHWGCRCNDSSD; epitope peptide) [compound 684]
[1]
  Signal (peptides that show specific binding to Z3G1): 2377
HuM2e antibody 23K12
  Signal (peptides that bind to 23K21 and 8I10): 728

## 685 (SLLTEVETPIRNVWGCRCNDSSD; epitope peptide) [compound 685]
[1]
  Signal (peptides that show specific binding to Z3G1): 2281
HuM2e antibody 23K12
  Signal (peptides that bind to 23K21 and 8I10): 728

## 686 (SLLTEVETPIRNEWGCRLNDSSD; epitope peptide) [compound 686]
[1]
  Signal (peptides that show specific binding to Z3G1): 2363
HuM2e antibody 23K12
  Signal (peptides that bind to 23K21 and 8I10): 728

## 687 (SLLTEVETPCRNEWGCRCNDSSD; epitope peptide) [compound 687]
[1]
  Signal (peptides that show specific binding to Z3G1): 2050
HuM2e antibody 23K12
  Signal (peptides that bind to 23K21 and 8I10): 724

## 688 (SLLTEVETPIRNETGCRCNDSSD; epitope peptide) [compound 688]
[1]
  Signal (peptides that show specific binding to Z3G1): 2401
HuM2e antibody 23K12
  Signal (peptides that bind to 23K21 and 8I10): 724

## 689 (SLLTEVETPIRNEWGCRCGDSSD; epitope peptide) [compound 689]
[1]
  Signal (peptides that bind to Z3G1): 2343
HuM2e antibody 23K12
  Signal (peptides that bind to 23K21 and 8I10): 724

## 690 (SLLTEVHTPIRNEWGCRCNDSSD; epitope peptide) [compound 690]
[1]
  Signal (peptides that show specific binding to Z3G1): 2057
HuM2e antibody 23K12
  Signal (peptides that bind to 23K21 and 8I10): 722

## 691 (SLLTEVETPIRNEWGCRMNDSSD; epitope peptide) [compound 691]
[1]
  Signal (peptides that show specific binding to Z3G1): 2356
HuM2e antibody 23K12
  Signal (peptides that bind to 23K21 and 8I10): 722

## 692 (SLLTEVETPILNEWGCRCNDSSD; epitope peptide) [compound 692]
[1]
  Signal (peptides that show specific binding to Z3G1): 2363
HuM2e antibody 23K12
  Signal (peptides that bind to 23K21 and 8I10): 721

## 694 (SLLTEVETPIRNEWGCRCNESSD; epitope peptide) [compound 694]
[1]
  Signal (peptides that bind to Z3G1): 2282
HuM2e antibody 23K12
  Signal (peptides that bind to 23K21 and 8I10): 720

## 695 (SLLTEVEVPIRNEWGCRCNDSSD; epitope peptide) [compound 695]
[1]
  Signal (peptides that show specific binding to Z3G1): 2286
HuM2e antibody 23K12
  Signal (peptides that bind to 23K21 and 8I10): 719

## 696 (SLLTEVETPIRNEHGCRCNDSSD; epitope peptide) [compound 696]
[1]
  Signal (peptides that show specific binding to Z3G1): 2398
HuM2e antibody 23K12
  Signal (peptides that bind to 23K21 and 8I10): 719

## 697 (SLLTEVETPIRNEWGCRINDSSD; epitope peptide) [compound 697]
[1]
  Signal (peptides that show specific binding to Z3G1): 2409
HuM2e antibody 23K12
  Signal (peptides that bind to 23K21 and 8I10): 718

## 698 (SLLTEVETPIRDEWGCRCNDSSD; epitope peptide) [compound 698]
[1]
  Signal (peptides that show specific binding to Z3G1): 2187
HuM2e antibody 23K12
  Signal (peptides that bind to 23K21 and 8I10): 716

## 699 (SLLTEVETPIRNEWGCRYNDSSD; epitope peptide) [compound 699]
[1]
  Signal (peptides that bind to Z3G1): 2169
HuM2e antibody 23K12
  Signal (peptides that bind to 23K21 and 8I10): 716

## 700 (SLLTEVETSIRNEWGCRCNDSSD; epitope peptide) [compound 700]
[1]
  Signal (peptides that show specific binding to Z3G1): 2151
HuM2e antibody 23K12
  Signal (peptides that bind to 23K21 and 8I10): 715

## 701 (SLLTEVETPIRNEWGCKCNDSSD; epitope peptide) [compound 701]
[1]
  Signal (peptides that show specific binding to Z3G1): 2290
HuM2e antibody 23K12
  Signal (peptides that bind to 23K21 and 8I10): 715

## 702 (SLLTEVETPIRNYWGCRCNDSSD; epitope peptide) [compound 702]
[1]
  Signal (peptides that show specific binding to Z3G1): 2311
HuM2e antibody 23K12
  Signal (peptides that bind to 23K21 and 8I10): 714

## 703 (SLLTEVETPIRNWWGCRCNDSSD; epitope peptide) [compound 703]
[1]
  Signal (peptides that show specific binding to Z3G1): 2293
HuM2e antibody 23K12
  Signal (peptides that bind to 23K21 and 8I10): 713

## 705 (SLLTEVKTPIRNEWGCRCNDSSD; epitope peptide) [compound 705]
[1]
  Signal (peptides that show specific binding to Z3G1): 1905
HuM2e antibody 23K12
  Signal (peptides that bind to 23K21 and 8I10): 712

## 706 (SLLTEVETPIRNEWGCRCADSSD; epitope peptide) [compound 706]
[1]
  Signal (peptides that bind to Z3G1): 2329
HuM2e antibody 23K12
  Signal (peptides that bind to 23K21 and 8I10): 712

## 707 (SLLTEVETPIANEWGCRCNDSSD; epitope peptide) [compound 707]
[1]
  Signal (peptides that show specific binding to Z3G1): 2302
HuM2e antibody 23K12
  Signal (peptides that bind to 23K21 and 8I10): 708

## 708 (SLLTEVETPIRNEGGCRCNDSSD; epitope peptide) [compound 708]
[1]
  Signal (peptides that show specific binding to Z3G1): 2486
HuM2e antibody 23K12
  Signal (peptides that bind to 23K21 and 8I10): 708

## 709 (SLLTEVLTPIRNEWGCRCNDSSD; epitope peptide) [compound 709]
[1]
  Signal (peptides that show specific binding to Z3G1): 1743
HuM2e antibody 23K12
  Signal (peptides that bind to 23K21 and 8I10): 707

## 710 (SLLTEVETPIRREWGCRCNDSSD; epitope peptide) [compound 710]
[1]
  Signal (peptides that show specific binding to Z3G1): 2278
HuM2e antibody 23K12
  Signal (peptides that bind to 23K21 and 8I10): 707

## 711 (CSLLTEVGSLCTEV; epitope peptide) [compound 711]
[1]
  Signal (peptides that show specific binding to Z3G1): 2409
HuM2e antibody 23K12
  Signal (peptides that bind to 23K21 and 8I10): 707

## 712 (SLLTEVETPIRNDWGCRCNDSSD; epitope peptide) [compound 712]
[1]
  Signal (peptides that show specific binding to Z3G1): 2324
HuM2e antibody 23K12
  Signal (peptides that bind to 23K21 and 8I10): 706

## 713 (SLLTEVETPIRNEWGQRCNDSSD; epitope peptide) [compound 713]
[1]
  Signal (peptides that show specific binding to Z3G1): 2369
HuM2e antibody 23K12
  Signal (peptides that bind to 23K21 and 8I10): 705

## 714 (SLLTEVETPIRNEWCCRCNDSSD; epitope peptide) [compound 714]
[1]
  Signal (peptides that show specific binding to Z3G1): 2388
HuM2e antibody 23K12
  Signal (peptides that bind to 23K21 and 8I10): 704

## 716 (SLLTEVETPIRNEFGCRCNDSSD; epitope peptide) [compound 716]
[1]
  Signal (peptides that show specific binding to Z3G1): 2444
HuM2e antibody 23K12
  Signal (peptides that bind to 23K21 and 8I10): 702

## 718 (SLLTEVECPIRNEWGCRCNDSSD; epitope peptide) [compound 718]
[1]
  Signal (peptides that show specific binding to Z3G1): 1974
HuM2e antibody 23K12
  Signal (peptides that bind to 23K21 and 8I10): 700

## 719 (SLLTEVETPIRNEWGCTCNDSSD; epitope peptide) [compound 719]
[1]
  Signal (peptides that show specific binding to Z3G1): 2347
HuM2e antibody 23K12
  Signal (peptides that bind to 23K21 and 8I10): 700

## 720 (SLLTEVETPIINEWGCRCNDSSD; epitope peptide) [compound 720]
[1]
  Signal (peptides that show specific binding to Z3G1): 2262
HuM2e antibody 23K12
  Signal (peptides that bind to 23K21 and 8I10): 699

## ETPIRNEWGCRCNDSSD [CM17]
2N9 control antibody
  Binding activity to truncated M2 peptides, ELISA absorbance at 450 nm, 2N9: 0.11
mAb 8i10
  Binding activity to truncated M2 peptides, ELISA absorbance at 450 nm, 8i10: 0.11

## LTEVETPIRNEWGCR [M15]
2N9 control antibody
  Binding activity to truncated M2 peptides, ELISA absorbance at 450 nm, 2N9: 0.09
mAb 8i10
  Binding activity to truncated M2 peptides, ELISA absorbance at 450 nm, 8i10: 0.09

## PIRNEWGCRCNDSSD [CM15]
2N9 control antibody
  Binding activity to truncated M2 peptides, ELISA absorbance at 450 nm, 2N9: 0.11
mAb 8i10
  Binding activity to truncated M2 peptides, ELISA absorbance at 450 nm, 8i10: 0.12

## RNEWGCRCNDSSD [CM13]
2N9 control antibody
  Binding activity to truncated M2 peptides, ELISA absorbance at 450 nm, 2N9: 0.13
mAb 8i10
  Binding activity to truncated M2 peptides, ELISA absorbance at 450 nm, 8i10: 0.14

## SLLTEVETP [NM9]
2N9 control antibody
  Binding activity to truncated M2 peptides, ELISA absorbance at 450 nm, 2N9: 0.19
mAb 8i10
  Binding activity to truncated M2 peptides, ELISA absorbance at 450 nm, 8i10: 0.12

## SLLTEVETPIRNE [NM13]
2N9 control antibody
  Binding activity to truncated M2 peptides, ELISA absorbance at 450 nm, 2N9: 0.10
mAb 8i10
  Binding activity to truncated M2 peptides, ELISA absorbance at 450 nm, 8i10: 0.11

## SLLTEVETPIRNEW [NM14]
2N9 control antibody
  Binding activity to truncated M2 peptides, ELISA absorbance at 450 nm, 2N9: 0.09
mAb 8i10
  Binding activity to truncated M2 peptides, ELISA absorbance at 450 nm, 8i10: 0.11

## SLLTEVETPIRNEWG [NM15]
2N9 control antibody
  Binding activity to truncated M2 peptides, ELISA absorbance at 450 nm, 2N9: 0.11
mAb 8i10
  Binding activity to truncated M2 peptides, ELISA absorbance at 450 nm, 8i10: 0.12

## SLLTEVGSLLTEV (epitope peptide) [SEQ ID NO: 320]
[1]
  Binding to Z3G1 (in words): recognized
HuM2e antibody 23K12
  Binding to 23K12 (in words): best 23k12 binder
